In the supplement of paper PMC10307832:

Experiments:
Experiment in all cases: relative viability (nuclei count vs DMSO), 5 days (fraction); higher = more cells survive
Carfilzomib + Phenformin = compound: CC(C)C[C@H](NC(=O)[C@H](CCc1ccccc1)NC(=O)CN1CCOCC1)C(=O)N[C@@H](Cc1ccccc1)C(=O)N[C@@H](CC(C)C)C(=O)[C@@]1(C)CO1 [Carfilzomib] + N=C(N)NC(=N)NCCc1ccccc1 [Phenformin] (partner 250 µM)
Summary of the method: (§1)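 Relative viability is defined as nuclei in treated wells over nuclei in vehicle wells. Duplicate plates were run and medians reported. Lung cancer cell lines in 1536-well plates were dosed by pin tool one day after seeding, with one drug or with a fixed anchor-drug dose plus five library-drug doses (not always all listed) in √10 steps, and nuclei were counted after 5 days.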

Olaparib + Navitoclax = compound: O=C(c1cc(Cc2n[nH]c(=O)c3ccccc23)ccc1F)N1CCN(C(=O)C2CC2)CC1 [Olaparib] + CC1(C)CCC(c2ccc(Cl)cc2)=C(CN2CCN(c3ccc(C(=O)NS(=O)(=O)c4ccc(N[C@H](CCN5CCOCC5)CSc5ccccc5)c(S(=O)(=O)C(F)(F)F)c4)cc3)CC2)C1 [Navitoclax] (partner 0.5 µM)
Summary of the method: as §1

Carfilzomib + OSI-027 = compound: CC(C)C[C@H](NC(=O)[C@H](CCc1ccccc1)NC(=O)CN1CCOCC1)C(=O)N[C@@H](Cc1ccccc1)C(=O)N[C@@H](CC(C)C)C(=O)[C@@]1(C)CO1 [Carfilzomib] + COc1cccc2cc(-c3nc([C@H]4CC[C@H](C(=O)O)CC4)n4ncnc(N)c34)[nH]c12 [OSI-027] (partner 0.5 µM)
Summary of the method: as §1

Olaparib + Decitabine = compound: O=C(c1cc(Cc2n[nH]c(=O)c3ccccc23)ccc1F)N1CCN(C(=O)C2CC2)CC1 [Olaparib] + Nc1ncn([C@H]2C[C@H](O)[C@@H](CO)O2)c(=O)n1 [Decitabine] (partner 2 µM)
Summary of the method: as §1

Cell Line | relative viability (Carfilzomib + Phenformin; first compound 0.001 µM) | relative viability (Carfilzomib + Phenformin; first compound 0.003162 µM) | relative viability (Carfilzomib + Phenformin; first compound 0.01 µM) | relative viability (Carfilzomib + Phenformin; first compound 0.03162 µM) | relative viability (Carfilzomib + Phenformin; first compound 0.1 µM) | relative viability (Olaparib + Navitoclax; first compound 0.08 µM) | relative viability (Olaparib + Navitoclax; first compound 0.253 µM) | relative viability (Olaparib + Navitoclax; first compound 2.53 µM) | relative viability (Olaparib + Navitoclax; first compound 8 µM) | relative viability (Carfilzomib + OSI-027; first compound 0.001 µM) | relative viability (Carfilzomib + OSI-027; first compound 0.003162 µM) | relative viability (Carfilzomib + OSI-027; first compound 0.01 µM) | relative viability (Carfilzomib + OSI-027; first compound 0.03162 µM) | relative viability (Carfilzomib + OSI-027; first compound 0.1 µM) | relative viability (Olaparib + Decitabine; first compound 0.08 µM) | relative viability (Olaparib + Decitabine; first compound 0.253 µM) | relative viability (Olaparib + Decitabine; first compound 2.53 µM) | relative viability (Olaparib + Decitabine; first compound 8 µM)
HCC-366 | 0.622 | 0.678 | 0.596 | 0.565 | 0.17 | 1.08 | 0.985 | 0.827 | 0.492 | 0.914 | 1.02 | 1.12 | 0.839 | 0.035 | 0.186 | 0.144 | 0.0931 | 0.113
HCC-827 | 0.37 | 0.44 | 0.428 | 0.394 | 0.279 | 0.979 | 0.933 | 0.978 | 0.855 | 0.796 | 0.829 | 0.872 | 0.746 | 0.511 | 0.306 | 0.266 | 0.291 | 0.231
HOP-62 | 0.749 | 0.694 | 0.415 | 0.232 | 0.0898 | 1.22 | 0.929 | 1.06 | 0.823 | 0.892 | 0.899 | 0.575 | 0.317 | 0.083 | 0.18 | 0.17 | 0.234 | 0.178
IA-LM | – | – | – | – | – | 0.825 | 0.784 | 0.707 | 0.502 | – | – | – | – | – | – | – | – | –
LC-2-ad | 0.567 | 0.668 | 0.612 | 0.453 | 0.181 | 0.529 | 0.431 | 0.365 | 0.316 | 0.83 | 1.02 | 0.901 | 0.633 | 0.207 | 0.618 | 0.623 | 0.557 | 0.509
LCLC-97TM1 | 0.423 | 0.401 | 0.497 | 0.302 | 0.147 | 0.528 | 0.259 | 0.346 | 0.405 | 0.459 | 0.512 | 0.533 | 0.298 | 0.246 | 0.193 | 0.143 | 0.165 | 0.178
LCLC-103H | 0.328 | 0.327 | 0.297 | 0.285 | 0.17 | – | – | – | – | 0.462 | 0.463 | 0.541 | 0.483 | 0.277 | 0.626 | 0.727 | 0.674 | 0.626
LK-2 | 0.628 | 0.584 | 0.158 | 0.119 | 0.182 | 0.887 | 0.696 | 0.876 | 0.951 | 0.223 | 0.201 | 0.166 | 0.18 | 0.181 | 0.258 | 0.254 | 0.271 | 0.184
LOU-NH91 | 0.724 | 0.806 | 0.543 | 0.215 | 0.221 | 0.757 | 0.642 | 0.725 | 0.618 | 0.77 | 0.801 | 0.711 | 0.259 | 0.322 | 0.853 | 0.774 | 0.783 | 0.769
LU99A | 0.921 | 0.806 | 0.721 | 0.757 | 0.263 | 0.775 | 0.635 | 0.547 | 0.289 | 0.293 | 0.309 | 0.317 | 0.275 | 0.192 | 0.933 | 0.753 | 0.601 | 0.566
LXF-289 | 0.524 | 0.519 | 0.393 | 0.226 | 0.0577 | 1.03 | 0.9 | 1.02 | 0.96 | 0.818 | 0.9 | 0.749 | 0.163 | 0.0509 | 0.336 | 0.302 | 0.272 | 0.232
NCI-H358 | 0.338 | 0.4 | 0.203 | 0.0604 | 0.0694 | – | – | – | – | 0.638 | 0.834 | 0.888 | 0.0702 | 0.0685 | 0.148 | 0.157 | 0.23 | 0.138
NCI-H522 | 0.697 | 0.719 | 0.668 | 0.515 | 0.401 | – | – | – | – | 0.585 | 0.731 | 0.634 | 0.461 | 0.456 | 0.745 | 0.645 | 0.724 | 0.598
NCI-H650 | – | 0.536 | 0.451 | 0.345 | 0.148 | – | – | – | – | – | 0.612 | 0.54 | 0.439 | 0.221 | 0.266 | 0.293 | 0.241 | 0.281
NCI-H661 | 0.268 | 0.272 | 0.272 | 0.248 | 0.215 | – | – | – | – | 0.698 | 0.705 | 0.722 | 0.675 | 0.394 | 0.454 | 0.434 | 0.4 | 0.382
NCI-H1299 | – | – | – | – | – | 1.07 | 0.995 | 1.04 | 0.944 | – | – | – | – | – | – | – | – | –
NCI-H1563 | 0.673 | 0.681 | 0.61 | 0.661 | 0.48 | – | – | – | – | 0.775 | 0.71 | 0.797 | 0.705 | 0.586 | – | – | – | –
NCI-H1623 | 0.5 | 0.612 | 0.725 | 0.19 | 0.414 | – | – | – | – | 0.449 | 0.462 | 0.46 | 0.374 | 0.312 | – | – | – | –
NCI-H1648 | – | – | – | – | – | – | – | – | – | – | 0.272 | 0.256 | 0.255 | 0.298 | 0.431 | 0.384 | – | 0.44
NCI-H1703 | – | – | – | – | – | 1.29 | 1.06 | 1.05 | 1.43 | – | – | – | – | – | – | – | – | –
NCI-H2228 | 0.332 | 0.293 | 0.207 | 0.0804 | 0.108 | 1.14 | 0.809 | 0.707 | 0.587 | 0.506 | 0.736 | 0.397 | 0.0668 | 0.0974 | – | – | – | –
NCI-H2342 | 0.652 | 0.521 | 0.715 | 0.671 | 0.352 | – | – | – | – | 0.663 | 0.621 | 0.723 | 0.632 | 0.495 | 0.756 | 0.606 | 0.663 | 0.619
SW 900 | 0.431 | 0.937 | 0.133 | 0.163 | 0.138 | – | – | – | – | 0.451 | 0.362 | 0.114 | 0.0786 | 0.135 | 0.355 | 0.331 | 0.413 | 0.355
